Assay results reported in patent US10174038B2, “Compounds and methods for antiviral treatment” (Gilead Sciences, Inc., priority 2012, dated 2019).

These compounds were tested on RSV strain A2 (assay: RSV antiviral activity, in vitro cytoprotection assay in Hep2 cells). Conditions: human respiratory syncytial virus, HEp-2; 0.5 μM compound; RSV-induced cytopathic effect in Hep2 cells; % inhibition calculated from fitted 4-parameter dose response curve, normalized to 0% and 100%; read-out: Percent inhibition at 0.5 μM.
Type: cell-based, Respiratory Syncytial Virus (RSV)
Description: Antiviral activity against RSV was determined using an in vitro cytoprotection assay in Hep2 cells. […] The method used was similar to methods previously described in published literature (Chapman et al., Antimicrob Agents Chemother. 2007, 51(9):3346-53.)
Hep2 cells were obtained from ATCC (Manassas, Va.) and maintained in MEM media supplemented with 10% fetal bovine serum and penicillin/streptomycin. Cells were passaged twice a week and kept at subconfluent stage. Commercial stock of RSV strain A2 (Advanced Biotechnologies, Columbia, Md.) was titered before compound testing to determine the appropriate dilution of the virus stock that generated desirable cytopathic effect in Hep2 cells.
For antiviral tests, Hep2 cells were seeded into 96-well plates 24 hours before the assay at a density of 3,000 cells/well. On a separate 96 well plate, compounds to be tested were serially diluted in cell culture media. Eight concentrations in 3-fold serial dilution increments were prepared for each tested compound and 100 uL/well of each dilution was transferred in duplicate onto plates with seeded Hep2 cells. Subsequently, appropriate dilution of virus stock previously determined by titration was prepared in cell culture media and 100 uL/well was added to test plates containing cells and serially diluted compounds. Each plate included three wells of infected untreated cells and three wells of uninfected cells that served as 0% and 100% virus inhibition control, respectively. Following the infection with RSV, testing plates were incubated for 4 days in a tissue culture incubator. After the incubation, RSV-induced cytopathic effect was determined using a Cell TiterGlo reagent (Promega, Madison, Wis.) followed by a luminescence read-out. The percentage inhibition was calculated for each tested concentration relative to the 0% and 100% inhibition controls and the EC50 value for each compound was determined by non-linear regression as a concentration inhibiting the RSV-induced cytopathic effect by 50%. Ribavirin (purchased from Sigma, St. Louis, Mo.) was used as a positive control for antiviral activity.
Compounds were also tested for antiviral activity against RSV in Hep2 cells using a 384 well format. Compounds were diluted in DMSO using a 10-step serial dilution in 3-fold increments via automation in 4 adjacent replicates each. Eight compounds were tested per dilution plate. 0.4 uL of diluted compounds were then stamped via Biomek into 384-well plates (Nunc 142761 or 164730 w/lid 264616) containing 20 μL of media (Mediatech Inc. MEM supplemented with Glutamine, 10% FBS and Pen/Strep). DMSO and a suitable positive control compound, such as 80 μM GS-329467 or 10 μM 427346 was used for the 100% and 0% cell killing controls, respectively.
Hep2 cells (1.0×10^5 cells/ml) were prepared as above in batch to at least 40 mls excess of the number of sample plates (8 mls cell mix per plate) and infected with vendor supplied (ABI) RSV strain A2 to arrive at an MOI of 1:1000 (virus:cell #) or 1:3000 (vol virus:cell vol). Immediately after addition of virus, the RSV infected Hep2 cell suspension was added to each stamped 384-well plate at 20 μl per well using a uFlow dispenser, giving a final volume of 40 μL/well, each with 2000 infected cells. The plates were then incubated for 5 days at 37° C. and 5% CO2. Following incubation, the plates were equilibrated to room temperature in a biosafety cabinet hood for 1.5 hrs and 40 μL of Cell-Titer Glo viability reagent (Promega) was added to each well via uFlow. Following a 10-20 minute incubation, the plates were read using an EnVision or Victor Luminescence plate reader (Perkin-Elmer). The data was then uploaded and analyzed on the Bioinformatics portal under the RSV Cell Infectivity and 8-plate EC50-Hep2-384 or 8-plate EC50-Hep2-Envision protocols. […]

In order of rising inhibition at 0.5 µM:
1. Cc1cc(C)n2cc([C@@H]3CCCCN3C(=O)c3cc(Cl)ccc3NS(C)(=O)=O)nc2c1 [Compound 104]  3%
2. Cc1cccc(C(=O)N2CCCC[C@H]2c2cn3nc(N4CC[C@H](N)C4)ccc3n2)n1 [Compound 119]  83%
3. Cc1cc(N(C)CCO)nc2cc([C@@H]3CCCCN3C(=O)c3cc(Cl)ccc3NS(C)(=O)=O)nn12 [Compound 60]  87%
4. CS(=O)(=O)Nc1ccc(Cl)cc1C(=O)N1CCCC[C@H]1c1cc2nc(C3CNC3)cc(N3CCOCC3)n2n1 [Compound 56]  93%
5. CS(=O)(=O)Nc1ccc(Cl)cc1C(=O)N1CCCC[C@H]1c1cc2nc(C3CCCC3)cc(N3CCOCC3)n2n1 [Compound 57]  93%
6. CN[C@@H]1CCN(c2cc(C)n3nc([C@@H]4CCCCN4C(=O)c4cc(Cl)ccc4NS(C)(=O)=O)cc3n2)C1 [Compound 84]  95%
7. Cc1cc(C2CC2)nc2cc([C@@H]3CCCCN3C(=O)c3ccccc3NS(C)(=O)=O)nn12 [Compound 46]  97%
8. Cc1cn2nc([C@@H]3CCCCN3C(=O)c3cc(Cl)ccc3NS(C)(=O)=O)cc2nc1N1CC(C#N)C1 [Compound 97]  97%
9. Cc1ccc(C(=O)N2CCCC[C@H]2c2cc3nc(C4CC4)cc(C)n3n2)c(NS(C)(=O)=O)c1 [Compound 76]  99%
10. Cc1cn2nc([C@@H]3CCCCN3C(=O)C(NS(C)(=O)=O)c3ccccc3Br)cc2nc1N1CC[C@H](N)C1 (stereo partly shown) [Compound 33]  100%
11. COC(=O)C1CCN1c1nc2cc([C@@H]3CCCCN3C(=O)c3cc(Cl)ccc3NS(C)(=O)=O)nn2cc1C (stereo partly shown) [Compound 99]  100%
12. Cc1ccc(Cl)cc1C(=O)N1CCCC[C@H]1c1cn2nc(N3CC[C@H](N)C3)ccc2n1 [Compound 121]  100%
13. CS(=O)(=O)Nc1ccc(Cl)cc1C(=O)N1CCCC[C@H]1c1cc2nc(N3CCC3)cc(N3CC[C@@H](N)C3)n2n1 [Compound 71]  100%
14. Cc1cn2nc([C@@H]3CCCCN3C(=O)C(NS(C)(=O)=O)c3ccccc3Br)cc2nc1N1C[C@@H](C#N)[C@@H](O)C1 (stereo partly shown) [Compound 23]  100%
15. Cc1cc2nc([C@@H]3CCCCN3C(=O)C(NS(C)(=O)=O)c3ccccc3Br)cn2nc1N1CC[C@H](N)C1 (stereo partly shown) [Compound 116]  100%
16. Cc1cn2nc([C@@H]3CCCCN3C(=O)[C@@](C)(NS(C)(=O)=O)c3ccccc3)cc2nc1N1CC[C@H](N)C1 [Compound 28]  100%
